Reference: patent publication US9573966B2, “Anti-cancer activity of novel bicyclic heterocycles” (Katholieke Universiteit Leuven, K.U.Leuven R&D, priority 2010, dated 2017)

Legend:
HSB-2 cells = test: Inhibition of HSB-2 leukemic cell line proliferation (WST-1); assay type: cell-based, human; details: cytotoxicity on HSB-2 cells, two days incubation, WST-1 read-out
Experimental: (§1) HSB2 cell line, a human acute lymphoblastic leukemia (ATCC; CCL-120.1) cell line, was grown in RPMI-1640 medium (Lonza, Belgium) supplemented with 10% fetal calf serum (Hyclone, US) and antibiotics. Exponential growing phase cells were seed in flat bottom 96-well microplates (TTP, Switzerland) at 50000 cells per well in 220 μl of medium with compounds (in different concentrations) and incubated for two days at 37° C., 5% CO2. After incubation, 100 μl of supernatant were removed and 10 μl of WST-1 (Roche, Switzerland) were added. After 2 hour incubation at 37° C., 5% CO2, optical densities were measured at 450 nm. Proliferation is calculated with respect of control points (no compound and treatment with Triton X100 to have maximum and minimum proliferation data). The IC50 was determined from a graph with at least four points, each derived from the mean of at least 2 experiments. […] The results are shown in Table 1 for a number of compounds.

HL-60 cells = test: Inhibition of HL-60 leukemic cell line proliferation (WST-1); assay type: cell-based, human; details: cytotoxicity on HL-60 cells, two days incubation, WST-1 read-out
Experimental: as §1, with “HL-60 cell” for “HSB2 cell”, “human promyelocytic” for “human acute lymphoblastic”, “(ATCC; CCL-240)” for “(ATCC; CCL-120.1)”, “Table 2” for “Table 1”

Row | Compound | IC50 (HSB-2 cells; Homo sapiens, HSB2, 48 h) [µM] | IC50 (HL-60 cells; Homo sapiens, 48 h) [µM] | IC50 (HSB-2 cells) [µM] | IC50 (HL-60 cells) [µM]
1 | Nc1nc(N2CCN(C(=O)COc3ccc(Cl)cc3)CC2)c2nc(-c3ccc(Cl)c(Cl)c3)sc2n1 [Example 116, 5-amino-7-[4-(4-chlorophenoxyacetyl)piperazin-1-yl]-2-(3,4-dichlorophenyl)thiazolo[5,4-d]pyrimidine] | 6.01 | 8.59 | – | –
2 | Nc1nc(N2CCN(C(=O)COc3ccc(Cl)cc3)CC2)c2nc(C3(c4ccc(Cl)cc4)CC3)sc2n1 [Example 117, 5-amino-7-[4-(4-chlorophenoxyacetyl)piperazin-1-yl]-2-(1-(4-chlorophenyl)cyclopropyl)thiazolo[5,4-d]pyrimidine] | 6.28 | > 10 | – | –
3 | Nc1nc(N2CCN(C(=O)COc3ccc(Cl)cc3)CC2)c2nc(CCc3ccccc3)sc2n1 [Example 118, 5-amino-7-[4-(4-chlorophenoxyacetyl)piperazin-1-yl]-2-(2-phenylethyl)thiazolo[5,4-d]pyrimidine] | 4.53 | 9.97 | – | –
4 | Nc1nc(N2CCN(C(=O)COc3ccc(Cl)cc3)CC2)c2nc(C3CC3)sc2n1 [Example 119, 5-amino-2-cyclopropyl-7-[4-(4-chlorophenoxyacetyl)piperazin-1-yl]-thiazolo[5,4-d]pyrimidine] | 3.03 | 3.81 | – | –
5 | Nc1nc(N2CCN(C(=O)COc3ccc(Cl)cc3)CC2)c2nc(C3CCCCC3)sc2n1 [Example 120, 5-amino-7-[4-(4-chlorophenoxyacetyl)piperazin-1-yl]-2-cyclohexylthiazolo[5,4-d]pyrimidine] | 4.87 | > 10 | – | –
6 | Nc1nc(N2CCN(C(=O)COc3ccc(Cl)cc3)CC2)c2nc(-c3ccc[n+]([O-])c3)sc2n1 [Example 121b, 5-amino-7-[4-(4-chlorophenoxyacetyl)piperazin-1-yl]-2-(N-oxopyridine-3-yl)thiazolo[5,4-d]pyrimidine] | – | – | 6.19 | 4.89
7 | Nc1nc(N2CCN(C(=O)COc3ccc(Cl)cc3)CC2)c2nc(-c3ccc(Cl)cc3)sc2n1 [Example 123, 5-amino-7-[4-(4-chlorophenoxyacetyl)piperazin-1-yl]-2-(4-chlorophenyl)thiazolo[5,4-d]pyrimidine] | 3.73 | 1.2 | – | –
8 | COc1cccc(-c2nc3c(N4CCN(C(=O)COc5ccc(Cl)cc5)CC4)nc(N)nc3s2)c1 [Example 124, 5-amino-7-[4-(4-chlorophenoxyacetyl)piperazin-1-yl]-2-(3-methoxyphenyl)thiazolo[5,4-d]pyrimidine] | 2.29 | 0.96 | – | –
9 | C[S+]([O-])c1nc2c(N3CCN(C(=O)COc4ccc(Cl)cc4)CC3)nc(N)nc2s1 (stereo not shown) [Example 126, 5-amino-7-[4-(4-chlorophenoxyacetyl)piperazin-1-yl]-2-methylsulfinyl-thiazolo[5,4-d]pyrimidine] | 5.47 | 3.82 | – | –
10 | Nc1nc(N2CCN(C(=O)COc3ccc(Br)cc3)CC2)c2nc(-c3ccc(F)cc3)sc2n1 [Example 128, 5-amino-2-(4-fluorophenyl)-7-(4-[2-(4-bromophenoxy)acetyl]-piperazin-1-yl)-thiazolo[5,4-d]pyrimidine] | – | 6.47 | 5.62 | –
11 | Nc1nc(N2CCN(C(=O)COc3cccc([N+](=O)[O-])c3)CC2)c2nc(-c3ccc(F)cc3)sc2n1 [Example 129, 5-amino-2-(4-fluorophenyl)-7-(4-[2-(3-nitrophenoxy)acetyl]-piperazin-1-yl)-thiazolo[5,4-d]pyrimidine] | 4.76 | 9.74 | – | –
12 | Nc1nc(N2CCN(C(=O)COc3ccccc3)CC2)c2nc(-c3ccc(F)cc3)sc2n1 [Example 130, 5-amino-2-(4-fluorophenyl)-7-(4-(2-phenoxyacetyl)-piperazin-1-yl)-thiazolo[5,4-d]pyrimidine] | 0.57 | 0.82 | – | –
13 | Nc1nc(N2CCN(C(=O)COc3cccc([N+](=O)[O-])c3)CC2)c2nc(CCc3ccc(F)cc3)sc2n1 [Example 131, 5-amino-2-[2-(4-fluorophenyl)ethyl]-7-(4-[2-(3-nitrophenoxy)acetyl]piperazin-1-yl)-thiazolo[5,4-d]pyrimidine] | > 10 | > 10 | – | –
14 | Cc1cccc(NC(=O)N2CCN(c3nc(N)nc4sc(CCc5ccc(F)cc5)nc34)CC2)c1 [Example 133, 5-amino-2-[2-(4-fluorophenyl)ethyl]-7-(4-m-tolylcarbamoylpiperazin-1-yl)-thiazolo[5,4-d]pyrimidine] | 12.3 | > 10 | – | –
15 | Nc1nc(N2CCN(C(=O)COc3ccccc3)CC2)c2nc(CCc3ccc(F)cc3)sc2n1 [Example 134, 5-amino-2-[2-(4-fluorophenyl)ethyl]-7-(4-[2-phenoxyacetyl]piperazin-1-yl)-thiazolo[5,4-d]pyrimidine] | > 10 | > 10 | – | –
16 | CCC(c1ccc(F)cc1)c1nc2c(N3CCN(C(=O)COc4ccc(Cl)cc4)CC3)nc(N)nc2s1 (stereo not shown) [Example 150, 5-amino-2-[1-(4-fluorophenyl)propyl]-7-(4-[2-(4-chlorophenoxy)acetyl]piperazin-1-yl)thiazolo[5,4-d]pyrimidine] | > 10 | > 10 | – | –
17 | Nc1nc(N2CCN(C(=O)COc3ccc(Cl)cc3)CC2)c2nc(CCc3cccs3)sc2n1 [Example 154, 5-amino-2-(2-thiophen-2-ylethyl)-7-(4-[2-(4-chloro-phenoxy)acetyl]piperazin-1-yl)thiazolo[5,4-d]pyrimidine] | 4.04 | 6.45 | – | –
18 | Nc1nc(N2CCN(C(=O)COc3ccc(Cl)cc3)CC2)c2nc(CCc3ccc(F)cc3)oc2n1 [Example 172, 1-(4-(5-amino-2-(4-fluorophenethyl)oxazolo[5,4-d]pyrimidin-7-yl)piperazin-1-yl)-2-(4-chlorophenoxy)ethanone] | > 10 | > 10 | – | –
19 | Nc1nc(N2CCN(C(=O)COc3ccc(Cl)cc3)CC2)c2nc(C3CC3)oc2n1 [Example 185, 5-amino-2-cyclopropyl-7-[4-(4-chlorophenoxyacetyl)piperazin-1-yl]-oxazolo[5,4-d]pyrimidine] | > 10 | > 10 | – | –
20 | COCc1nc2c(N3CCN(C(=O)COc4ccc(Cl)cc4)CC3)nc(N)nc2o1 [Example 186, 5-amino-7-[4-(4-chlorophenoxyacetyl)piperazin-1-yl]-2-methoxylmethyloxazolo[5,4-d]pyrimidine] | > 10 | > 10 | – | –
21 | CCCCCc1nc2c(N3CCN(C(=O)COc4ccc(Cl)cc4)CC3)nc(N)nc2o1 [Example 188, 5-amino-7-[4-(4-chlorophenoxyacetyl)piperazin-1-yl]-2-pentyloxazolo[5,4-d]pyrimidine] | > 10 | > 10 | – | –
22 | Nc1nc(N2CCN(C(=O)COc3ccc(Cl)cc3)CC2)c2nc(CCc3ccccc3)oc2n1 [Example 189, 5-amino-2-(2-phenylethyl)-7-[4-(4-chlorophenoxyacetyl)piperazin-1-yl]oxazolo[5,4-d]pyrimidine] | > 10 | > 10 | – | –
23 | Nc1nc(N2CCN(C(=O)COc3cccc([N+](=O)[O-])c3)CC2)c2nc(-c3ccc(F)cc3)oc2n1 [Example 193, 5-amino-2-(4-fluorophenyl)-7-(4-[2-(3-nitrophenoxy)acetyl]-piperazin-1-yl)-oxazolo[5,4-d]pyrimidine] | > 10 | > 10 | – | –
24 | Cc1cccc(NC(=O)N2CCN(c3nc(N)nc4oc(CCc5ccc(F)cc5)nc34)CC2)c1 [Example 196, 5-amino-2-[2-(4-fluorophenyl)ethyl]-7-(4-m-tolylcarbamoylpiperazin-1-yl)-oxazolo[5,4-d]pyrimidine] | > 10 | > 10 | – | –
25 | CN(C(=O)CN1CCN(c2nc(N)nc3oc(CCc4ccc(F)cc4)nc23)CC1)c1ccccc1 [Example 198, 5-amino-2-[2-(4-fluorophenyl)ethyl]-7-(4-[(methylphenyl-carbamoyl)methyl]piperazin-1-yl)-oxazolo[5,4-d]pyrimidine] | > 10 | > 10 | – | –
26 | COc1ccc(OCC(=O)N2CCN(c3nc(N)nc4sc(-c5ccccc5)nc34)CC2)cc1 [Example 208, 1-(4-(5-amino-2-phenylthiazolo[5,4-d]pyrimidin-7-yl)piperazin-1-yl)-2-(4-methoxyphenoxy)ethanone] | 0.06 | 0.07 | – | –
27 | Nc1nc(N2CCN(C(=O)COc3ccc(F)cc3)CC2)c2nc(-c3ccco3)sc2n1 [Example 209, 1-(4-(5-amino-2-(furan-2-yl)thiazolo[5,4-d]pyrimidin-7-yl)piperazin-1-yl)-2-(4-fluorophenoxy)ethanone] | 0.51 | 0.57 | – | –
28 | Nc1nc(N2CCN(C(=O)COc3ccc(Cl)cc3)CC2)c2nc(-c3ccc(F)cc3)[nH]c2n1 [Example 389, 1-(4-(2-amino-8-(4-fluorophenyl)-9H-purin-6-yl)piperazin-1-yl)-2-(4-chlorophenoxy)ethanone] | – | > 10 | – | –
